Assay results as given in PMC11678766, “Identification of Novel Inhibitors of Starch Excess 4 (SEX4)” (Life, 2024).

Tests used:
Type in all cases: biochemical
LSF2 [1] = molecular target: T1, LSF2 (Arabidopsis thaliana, UniProt Q9SRK5); test: Phosphatase assay against pNPP, LSF2
T1 construct: gift from Dr. Gentry's group, University of Kentucky College of Medicine
Method: (§1) The Arabidopsis thaliana SEX4 lacking the first 89 amino acids (Δ89-SEX4) and LSF2 proteins were kindly provided by Dr. Gentry’s group at the University of Kentucky College of Medicine (Lexington, KY, USA). para-nitrophenyl phosphate disodium salt hexahydrate (pNPP), Malachite green oxalate salt, ammonium molybdate tetrahydrate, and amylopectin from potato starch were purchased from Sigma-Aldrich. Absorbance was measured on a Beckman Coulter (Brea, CA, USA) DU 700 Series UV/Vis Spectrophotometer.
(§2) The phosphatase activity of SEX4 or LSF2 against pNPP in the presence or absence of an inhibitor was measured in this assay. The reaction (20 μL of total volume) of A. thaliana SEX4 or LSF2 was performed in the reaction mixture containing 1~2 μg SEX4 or LSF2, 1X assay buffer pH 5.5 (20 mM sodium acetate, 10 mM bis-Tris, 10 mM Tris, pH with HCl), 5 mM Dithiothreitol (DTT), and 50 mM pNPP (Sigma-Aldrich, Wien, Austria). It was incubated at 37 °C for 10 min with or without an inhibitor. The reaction was terminated by adding 80 μL of 0.25 N NaOH, and absorbance was measured at 410 nm.
(§3) The steady-state kinetic parameters were determined by varying substrate concentrations (pNPP 0.5–50 mM; amylopectin 5–45 μg) with or without an inhibitor. The data were fitted by nonlinear regression to the Michaelis–Menten equation using GraphPad PRISM 9.0 software to derive KM and kcat values. […] Inhibition constants (Ki) and inhibition types were determined by varying substrate concentrations in the absence of an inhibitor and in the presence of an inhibitor at the IC50 concentration.
(§4) The process of finding an inhibitor proceeded as follows (Figure 1). […] Then, reproduction experiments were performed with these compounds to select candidate substances. […] In order to assess any difference in selectivity between SEX4 and LSF2 for the selected candidates, the IC50 values of LSF2 were obtained through the pNPP and amylopectin assays and compared with those of SEX4.

SEX4 [2] = molecular target: T2, SEX4 (Arabidopsis thaliana, UniProt Q9FEB5); test: Phosphatase assay against pNPP, SEX4; conditions: for Inhibition model, pNPP assay, SEX4: determined by steady-state kinetic measurements
T2 construct: gift from Dr. Gentry's group, University of Kentucky College of Medicine
T2 sequence (Q9FEB5 90-379 limits assumed): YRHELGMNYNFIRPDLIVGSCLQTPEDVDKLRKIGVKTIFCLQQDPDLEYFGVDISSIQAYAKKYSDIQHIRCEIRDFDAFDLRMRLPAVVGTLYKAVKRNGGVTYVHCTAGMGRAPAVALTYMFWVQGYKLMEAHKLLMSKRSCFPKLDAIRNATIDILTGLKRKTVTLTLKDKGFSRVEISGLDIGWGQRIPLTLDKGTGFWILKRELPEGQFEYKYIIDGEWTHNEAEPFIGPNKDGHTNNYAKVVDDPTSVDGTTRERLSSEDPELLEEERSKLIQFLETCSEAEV
Method: as §1, §2, §3, §4
(§5) The IC50 values were calculated directly from regression curves using GraphPad PRISM software. The IC50 graph was fitted to the Logistic Equation.

SEX4 [3] = molecular target: T2, SEX4; test: Phosphatase assay against amylopectin, SEX4; conditions: for Inhibition model, amylopectin assay, SEX4: determined by steady-state kinetic measurements; for Selectivity between SEX4 and LSF2: comparison of IC50 values for SEX4 and LSF2
Method: as §1
(§6) The phosphatase activity of SEX4 or LSF2 toward amylopectin in the absence or presence of an inhibitor was measured in a reaction mixture with 2 μg SEX4 or LSF2 at 37 °C in 20 μL volume. The reaction mixture contained 100 mM sodium acetate, 50 mM bis-Tris, 50 mM Tris (pH 6.5), 10 mM DTT, and 45 μg amylopectin with or without an inhibitor. […] The release of free inorganic phosphate was determined by measuring the absorbance at 620 nm and the K2HPO4 standard curve.
as §3, §4, §5

LSF2 [4] = molecular target: T1, LSF2; test: Phosphatase assay against amylopectin, LSF2
Method: as §1, §6, §3, §4

[5] = average ± standard error of three measurements, read-out: IC50, pNPP assay, LSF2
[6] = 50 mM pNPP, inhibitor 0–0.2 mM, average ± standard error of three measurements, read-out: IC50, pNPP assay, SEX4
[7] = pNPP 0.5–50 mM, inhibitor at IC50 concentration, average ± standard error of three measurements, read-out: Ki, pNPP assay, SEX4
[8] = 45 μg amylopectin, inhibitor 0–0.2 mM, average ± standard error of three measurements, read-out: IC50, amylopectin assay, SEX4
[9] = amylopectin 5–45 μg, inhibitor at IC50 concentration, average ± standard error of three measurements, read-out: Ki, amylopectin assay, SEX4
[10] = not determined with the maximum concentration of candidate compounds, read-out: IC50, amylopectin assay, LSF2

T1 sequence (Q9SRK5 62-282): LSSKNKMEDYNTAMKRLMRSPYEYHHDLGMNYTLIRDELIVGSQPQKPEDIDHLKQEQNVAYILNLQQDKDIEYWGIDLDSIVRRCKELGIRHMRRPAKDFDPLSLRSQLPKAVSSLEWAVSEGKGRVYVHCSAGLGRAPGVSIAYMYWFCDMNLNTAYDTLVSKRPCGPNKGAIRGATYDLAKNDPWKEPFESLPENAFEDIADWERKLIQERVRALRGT

SMILES	IC50 (LSF2 [1]; [5])	IC50 (SEX4 [2]; [6])	Inhibition model, pNPP assay, SEX4 (SEX4 [2])	Ki (SEX4 [2]; [7])	IC50 (SEX4 [3]; [8])	Ki (SEX4 [3]; [9])	Inhibition model, amylopectin assay, SEX4 (SEX4 [3])	IC50 (SEX4 [2])	IC50 for SEX4 compared with that of LSF2, pNPP assay (SEX4 [2]; SEX4 vs LSF2)	IC50 (LSF2 [4]; [10])	IC50 (LSF2 [1])	Ki (SEX4 [2])	IC50 (SEX4 [3])	Ki (SEX4 [3])	Selectivity between SEX4 and LSF2 (SEX4 [3])	IC50 (LSF2 [4])	IC50 (SEX4 [2]; read-out: IC50, pNPP assay, SEX4)	Ki (SEX4 [2]; read-out: Ki, pNPP assay, SEX4)	IC50 (SEX4 [3]; read-out: IC50, amylopectin assay, SEX4)	Ki (SEX4 [3]; read-out: Ki, amylopectin assay, SEX4)
CCCc1c(O)nc2[nH]c(=O)sc2c1C [Compound D04, Thiazolo[4,5-b]pyridin-2(3H)-one, 5-hydroxy-7-methyl-6-propyl]	44.82 ± 0.022 µM	21.6 ± 0.008 µM	Uncompetitive	25.41 ± 0.012 µM	57.33 ± 0.34 µM	28.31 ± 0.014 µM	Competitive													
CCCCCC/C=C\CCCCCCCc1cccc(O)c1C(=O)O [Compound F05, Ginkgolic acid]	21.26 ± 0.008 µM		Uncompetitive	6.87 ± 0.007 µM	21.1 ± 0.021 µM	20.81 ± 0.021 µM	Uncompetitive	5.18 ± 0.014 µM	approximately four times lower	> 50 µM										
O=C1C=CC(=O)c2c(O)ccc(O)c21 [Compound F09, Naphthazarin]			Mixed-model				Uncompetitive	15.83 ± 0.018 µM			23.97 ± 0.028 µM	39.81 ± 0.026 µM	7.49 ± 0.016 µM	16.42 ± 0.012 µM	selective for SEX4	> 50 µM				
O=C(OCC1OC(OC(=O)c2cc(O)c(O)c(O)c2)C(OC(=O)c2cc(O)c(O)c(O)c2)C(OC(=O)c2cc(O)c(O)c(O)c2)C1OC(=O)c1cc(O)c(O)c(O)c1)c1cc(O)c(O)c(O)c1 [Compound G07, Penta-O-gallolyl-β-D-glucose]	13.39 ± 0.036 µM									> 50 µM							30.91 ± 0.021 µM	37.31 ± 0.026 µM	38.61 ± 0.022 µM	46.4 ± 0.032 µM
O=C(O)c1cc(O)c2c(c1)[C@@H]([C@@H]1c3cc(C(=O)O)cc(O)c3C(=O)c3c(OC4OC(CO)C(O)C(O)C4O)cccc31)c1cccc(OC3OC(CO)C(O)C(O)C3O)c1C2=O (stereo partly shown) [Compound G11, Sennoside]	23.03 ± 0.029 µM	25.75 ± 0.017 µM	Uncompetitive	33.87 ± 0.019 µM	9.72 ± 0.008 µM	7.81 ± 0.005 µM	Competitive			> 50 µM					selective for SEX4					
Cc1c(O)nc2[nH]c(=O)sc2c1C [Compound H03, Thiazolo[4,5-b]pyridin-2(3H)-one, 5-hydroxy-6,7-dimethyl]	49.58 ± 0.047 µM	39.58 ± 0.016 µM	Uncompetitive	42.34 ± 0.037 µM	13.05 ± 0.024 µM	29.84 ± 0.025 µM	Competitive													
CC(C)=CCc1c(-c2ccc(O)cc2O)oc2c(C3C=C(C)CC(C(=O)c4ccc(O)cc4O)C3c3ccc(O)cc3O)c(O)cc(O)c2c1=O (stereo not shown) [Compound H08, Moracenin B]	22.92 ± 0.025 µM	18.69 ± 0.026 µM	Uncompetitive	20.84 ± 0.023 µM	16.49 ± 0.051 µM	31.12 ± 0.027 µM	Uncompetitive			> 50 µM										
